Tested on: C57BL/6 mice
Assay: In vivo hair growth promoting effects on shaved back of C57BL/6 mice
Set-up: species or system mouse
Conditions: seven week-old female C57BL/6 mice in telogen, 100 ul applied once a day for 30 days, compared to vehicle control
Procedure: Seven week-old, female C57BL/6 mice were housed in groups of 7 to 11 animals. Mice were in the telogen stage of the hair cycle when used, as indicated by the pinkish color of the skin.
The mice's hair of the region of back was shaved by a clipper. After a one day for adaptation 100 ul of [γ-hydroxy-methylleucine^4] cyclosporin A was applied on the shaved portion once a day for a period of 30 days. After determining the degree of hair growth by the naked eye, the results were photographed. […] In contrast, animals treated with the derivatives (the 11 derivatives mentioned in REFERENCE EXAMPLES 6 to 11) were almost at the level of the control group, having virtually no effects (data not shown).
The test expanded to the derivatives modified on No. 4 amino acid, methylleucine. The results of the hair growth-stimulating effects on the derivatives in which the original No. 4 amino acid, methylleucine, is substituted with the similarly structured methylisoleucine, methylvaline, leucine, isoleucine, methylalanine (REFERENCE EXAMPLES 1 to 5) are represented in FIG. 17 to FIG. 23, wherein the hair growth-stimulating effects of […], [methylvaline^4] (FIG. 20), [leucine^4] (FIG. 21), [isoleucine^4] (FIG. 22), [methylalanine^4]

Question: With “[methylisoleucine^4] cyclosporin A [[methylleucine^4]]” as the substance, how does the “degree of hair growth (hair growth promoting effect) by the naked eye, photographed” value (“degree of hair growth” for short) read?
Answer: The value was “much lesser than cyclosporin A”.

Question: How did the “degree of hair growth” value turn out when [Leu^4] cyclosporin A [[leucine^4]] was run?
Answer: Its value is “much lesser than cyclosporin A”.

Question: For [Ile^4] cyclosporin A [[isoleucine^4]], which “degree of hair growth” value is on record?
Answer: Its value is “much lesser than cyclosporin A”.

Question: With “[MeVal^4] cyclosporin A [[methylvaline^4]]” as the substance, how does the “degree of hair growth” value read?
Answer: The value was “much lesser than cyclosporin A”.

Question: How did the “degree of hair growth” value turn out when “[MeAla^4] cyclosporin A [[methylalanine^4]]” was run?
Answer: The value was “much lesser than cyclosporin A”.
